# Results published in patent publication US11684599B2, “Very-long-chain polyunsaturated fatty acids, elovanoid hydroxylated derivatives, and methods of use” (Board of Supervisors of Louisiana State University and …, priority 2017, dated 2023).
# System: rats with fluid percussion injury (FPI)
# Assay: Traumatic brain injury (fluid percussion injury), neurobehavioral score and MRI
# Format: in vivo
# Conditions: moderate FPI; 1 μg/per rat into subdural space 1 h after TBI; days 1-14; versus CSF
# Procedure: FIGS. 23A and 23C: delivery via an intravenous injection; FIG. 23B: delivery via subdural injection. SD rats were subjected to a moderate fluid percussion injury (FPI) model and treated (1 μg/per rat) with 32- and 34 carbon elovanoids as the methyl ester (ME) or sodium salt (Na) (ELV-N32-ME, ELV-N34-ME, ELV-32-Na-d2, ELV-N34-Alkyne) or of vehicle (cerebral spinal fluid; CSF). Treatments were delivered into subdural space at 1 h after TBI. Animals received neurobehavioral examination (normal=0, maximal deficit=12) on days 1, 2, 3, 7 or 14. […] ELV-N34-Alkyne (IV, 300 μg/per animal). All animals received neurobehavioral examination (normal=0, maximal deficit=12) on days 1, 2, 3, 7 or 14.
# FIG. 34 is a schematic representation of an experimental protocol for to study the effects of traumatic brain injury through one exemplary model. Briefly, moderate TBI was administered via fluid percussion injury (FPI) to the right parieto-occipital area in male Sprague Dawley rats followed by treatment with elovanoids, behavioral testing, and ex vivo MRI histopathology.
# Briefly, Sprague-Dawley rats (280-350 g) were subjected to 4.8 mm craniotomy overlying the right parietal cortex (3.8 mm posterior to bregma and 2.5 mm lateral to midline) was performed 24 hours before fluid percussion injury. A plastic adaptor with a plug was positioned over the craniotomy. […]
row,SMILES,"neurologic score (normal=0, maximal deficit=12)"
1,"CC/C=C\C[C@H](O)\C=C/C=C/C=C/[C@H](O)C/C=C\C/C=C\CCCCCCCCCCCCC(=O)OC [ELV-N32-Me, methyl (14Z,17Z,20R,21E,23E,25Z,27S,29Z)-20,27-dihydroxydotriaconta-14,17,21,23,25,29-hexaenoate]",improved neurologic score
2,"CC/C=C\C[C@H](O)\C=C/C=C/C=C/[C@H](O)C/C=C\C/C=C\CCCCCCCCCCCCCCC(=O)OC [ELV-N34-Me, methyl (16Z,19Z,22R,23E,25E,27Z,29S,31Z)-22,29-dihydroxytetratriaconta-16,19,23,25,27,31-hexaenoate]",improved neurologic score
